# Literature values as cited in patent US20050163837A1, “Rosiglitazone formulations” (priority 2003, published 2005).
# How the values were obtained:
# [1] = tested on: animal models of type 2 diabetes
compound,measurement,setting,value
"CN(CCOc1ccc(CC2SC(=O)NC2=O)cc1)c1ccccn1 (stereo not drawn) [Rosiglitazone, 5-[4-[2-(N-methyl-N-(2-pyridyl)amino)ethoxy]benzyl]thiazolidine-2,4-dione]",development of overt diabetes,mouse models of diabetes; mouse models,prevent the development of overt diabetes
same,blood glucose levels and hyperinsulinemia,mouse models of diabetes; several mouse models of diabetes,reduce blood glucose levels and hyperinsulinemia
same,induction of hypoglycemia or impaired glucose tolerance,[1],did not induce hypoglycemia or impaired glucose tolerance
